Ki, IC50 and ED50 data for 26 compounds are collected here from ChEMBL document CHEMBL4819047, “Discovery of a new class of multi-target heterocycle piperidine derivatives as potential antipsychotics with pro-cognitive effect” (Bioorg Med Chem Lett, 2021).

Targets include D(2) dopamine receptor (Homo sapiens, UniProt P14416); Histamine H3 receptor (Homo sapiens, UniProt Q9Y5N1); D(3) dopamine receptor (Homo sapiens, UniProt P35462).
Data set [1] addresses 5-hydroxytryptamine receptor 2A (Homo sapiens, UniProt P28223).
The target in data set [2] is T1, 5-hydroxytryptamine receptor 1A (Homo sapiens, UniProt P08908).
T1 sequence (P08908 whole entry): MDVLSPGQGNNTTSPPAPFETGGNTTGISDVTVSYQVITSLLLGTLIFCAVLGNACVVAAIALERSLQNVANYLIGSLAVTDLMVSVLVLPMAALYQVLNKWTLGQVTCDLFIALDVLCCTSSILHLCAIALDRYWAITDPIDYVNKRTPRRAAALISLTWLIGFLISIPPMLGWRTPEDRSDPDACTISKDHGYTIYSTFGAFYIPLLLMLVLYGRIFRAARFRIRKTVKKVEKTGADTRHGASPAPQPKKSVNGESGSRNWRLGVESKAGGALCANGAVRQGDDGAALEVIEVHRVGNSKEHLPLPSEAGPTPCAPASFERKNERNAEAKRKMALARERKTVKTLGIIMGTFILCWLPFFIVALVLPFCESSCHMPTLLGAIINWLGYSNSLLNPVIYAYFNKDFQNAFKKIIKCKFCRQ

In data set [3] the target is T2, 5-hydroxytryptamine receptor 2C (Homo sapiens, UniProt P28335).
T2 sequence (P28335 whole entry): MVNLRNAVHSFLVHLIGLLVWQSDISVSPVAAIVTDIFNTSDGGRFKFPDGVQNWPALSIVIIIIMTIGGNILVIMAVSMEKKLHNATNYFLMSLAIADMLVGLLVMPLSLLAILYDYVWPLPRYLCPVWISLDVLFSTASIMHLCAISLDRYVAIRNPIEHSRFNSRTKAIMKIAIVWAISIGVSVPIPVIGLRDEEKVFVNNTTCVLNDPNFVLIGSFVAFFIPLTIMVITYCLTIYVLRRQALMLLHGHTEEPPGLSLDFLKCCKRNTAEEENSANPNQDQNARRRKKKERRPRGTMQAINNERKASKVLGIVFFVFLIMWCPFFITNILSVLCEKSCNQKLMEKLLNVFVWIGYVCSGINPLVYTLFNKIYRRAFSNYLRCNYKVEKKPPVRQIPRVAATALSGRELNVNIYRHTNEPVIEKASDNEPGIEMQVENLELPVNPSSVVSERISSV

For data set [4], the target named is Voltage-gated inwardly rectifying potassium channel KCNH2 (Homo sapiens, UniProt Q12809).
Description: Inhibition of human ERG by automated patch method relative to control
Data set [5] concerns the target 5-hydroxytryptamine receptor 6 (Homo sapiens, UniProt P50406).
The next data set has as its target Histamine H1 receptor (Homo sapiens, UniProt P35367). It counts as ADME.
In data set [6] the target is T3, Alpha-1A adrenergic receptor (Homo sapiens, UniProt P35348).
T3 sequence (P35348 whole entry): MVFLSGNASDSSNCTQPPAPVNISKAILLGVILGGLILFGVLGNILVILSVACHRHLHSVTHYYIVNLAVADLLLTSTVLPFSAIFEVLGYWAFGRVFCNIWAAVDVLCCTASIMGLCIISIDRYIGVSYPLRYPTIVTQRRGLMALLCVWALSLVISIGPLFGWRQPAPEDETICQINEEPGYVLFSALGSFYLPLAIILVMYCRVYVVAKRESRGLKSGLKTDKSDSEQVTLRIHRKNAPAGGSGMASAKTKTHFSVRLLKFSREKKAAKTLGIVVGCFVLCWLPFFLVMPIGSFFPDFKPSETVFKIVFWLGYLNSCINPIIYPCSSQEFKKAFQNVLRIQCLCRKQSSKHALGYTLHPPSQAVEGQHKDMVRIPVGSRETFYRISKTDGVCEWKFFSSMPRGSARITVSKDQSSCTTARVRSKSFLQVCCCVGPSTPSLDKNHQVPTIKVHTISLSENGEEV
Description: Binding affinity to alpha1 adrenoceptor (unknown origin)

For data set [7] the following is noted: mouse, in vivo, po.
Description: Induction of catalepsy in po dosed mouse by Horizontal grid and elevated bar test
Data set [8] is filed under the species Mus musculus. In words: animal or person. Conditions: po.
Description: Antipsychotic activity in po dosed mouse assessed as reduction in MK-801-induced hyperlocomotor activity
The species entered for data set [9] is Mus musculus. In words: animal or person. Conditions: po. The source holds these as a separate data set.
Description: Antipsychotic activity in po dosed mouse assessed as suppression of apomorphine-induced climbing behaviour
For a further data set, the species on record is Rattus norvegicus. The data set is described as follows: animal or person. Conditions: po.

D(2) dopamine receptor, sequence (P14416 whole entry): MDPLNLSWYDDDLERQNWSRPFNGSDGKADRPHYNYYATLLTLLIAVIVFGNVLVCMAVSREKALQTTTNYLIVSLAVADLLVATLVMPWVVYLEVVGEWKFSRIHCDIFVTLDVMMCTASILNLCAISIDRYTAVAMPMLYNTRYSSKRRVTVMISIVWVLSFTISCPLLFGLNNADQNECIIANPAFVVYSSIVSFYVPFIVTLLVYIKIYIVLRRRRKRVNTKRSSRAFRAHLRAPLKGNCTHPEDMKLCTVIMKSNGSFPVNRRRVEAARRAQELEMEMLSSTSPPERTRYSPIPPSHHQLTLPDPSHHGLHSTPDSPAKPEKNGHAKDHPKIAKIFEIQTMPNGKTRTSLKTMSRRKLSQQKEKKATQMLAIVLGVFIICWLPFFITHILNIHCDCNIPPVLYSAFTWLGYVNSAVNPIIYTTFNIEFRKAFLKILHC
D(3) dopamine receptor, sequence (P35462 whole entry): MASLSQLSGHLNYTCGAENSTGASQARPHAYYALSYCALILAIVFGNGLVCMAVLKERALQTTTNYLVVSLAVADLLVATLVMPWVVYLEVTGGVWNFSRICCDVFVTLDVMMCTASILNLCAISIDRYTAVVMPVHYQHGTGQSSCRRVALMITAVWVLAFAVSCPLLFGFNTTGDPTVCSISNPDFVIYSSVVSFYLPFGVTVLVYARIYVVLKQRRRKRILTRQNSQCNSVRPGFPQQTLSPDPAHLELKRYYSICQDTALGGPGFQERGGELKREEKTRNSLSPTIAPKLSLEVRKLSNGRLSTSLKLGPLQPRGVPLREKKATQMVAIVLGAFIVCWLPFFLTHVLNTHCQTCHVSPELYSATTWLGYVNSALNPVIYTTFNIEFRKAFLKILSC
Histamine H1 receptor, sequence (P35367 whole entry): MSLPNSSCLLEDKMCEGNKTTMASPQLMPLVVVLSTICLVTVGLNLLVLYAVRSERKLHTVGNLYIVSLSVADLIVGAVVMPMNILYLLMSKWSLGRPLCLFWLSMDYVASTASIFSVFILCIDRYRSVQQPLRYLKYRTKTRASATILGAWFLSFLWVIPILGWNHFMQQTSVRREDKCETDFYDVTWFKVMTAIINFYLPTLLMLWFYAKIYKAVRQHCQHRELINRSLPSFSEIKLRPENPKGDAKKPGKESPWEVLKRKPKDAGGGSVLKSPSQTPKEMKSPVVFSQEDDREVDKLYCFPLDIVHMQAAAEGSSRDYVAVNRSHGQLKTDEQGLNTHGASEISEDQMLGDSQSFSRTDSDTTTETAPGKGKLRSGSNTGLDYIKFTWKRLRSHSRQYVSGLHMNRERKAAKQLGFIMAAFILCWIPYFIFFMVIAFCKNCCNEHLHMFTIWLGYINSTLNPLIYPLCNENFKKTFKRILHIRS
5-hydroxytryptamine receptor 6, sequence (P50406 whole entry): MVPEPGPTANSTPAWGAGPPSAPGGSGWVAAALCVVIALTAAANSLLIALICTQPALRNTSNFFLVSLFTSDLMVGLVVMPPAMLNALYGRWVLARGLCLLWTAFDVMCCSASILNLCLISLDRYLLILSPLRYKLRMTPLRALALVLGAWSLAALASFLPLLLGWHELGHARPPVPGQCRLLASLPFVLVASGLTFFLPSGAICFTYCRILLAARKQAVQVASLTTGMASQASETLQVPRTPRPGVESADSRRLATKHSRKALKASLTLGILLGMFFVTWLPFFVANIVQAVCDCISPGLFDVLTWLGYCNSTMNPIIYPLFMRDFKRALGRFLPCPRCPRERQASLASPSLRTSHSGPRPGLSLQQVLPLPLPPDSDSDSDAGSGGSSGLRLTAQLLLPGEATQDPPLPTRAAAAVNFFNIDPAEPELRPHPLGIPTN
Histamine H3 receptor, sequence (Q9Y5N1 whole entry): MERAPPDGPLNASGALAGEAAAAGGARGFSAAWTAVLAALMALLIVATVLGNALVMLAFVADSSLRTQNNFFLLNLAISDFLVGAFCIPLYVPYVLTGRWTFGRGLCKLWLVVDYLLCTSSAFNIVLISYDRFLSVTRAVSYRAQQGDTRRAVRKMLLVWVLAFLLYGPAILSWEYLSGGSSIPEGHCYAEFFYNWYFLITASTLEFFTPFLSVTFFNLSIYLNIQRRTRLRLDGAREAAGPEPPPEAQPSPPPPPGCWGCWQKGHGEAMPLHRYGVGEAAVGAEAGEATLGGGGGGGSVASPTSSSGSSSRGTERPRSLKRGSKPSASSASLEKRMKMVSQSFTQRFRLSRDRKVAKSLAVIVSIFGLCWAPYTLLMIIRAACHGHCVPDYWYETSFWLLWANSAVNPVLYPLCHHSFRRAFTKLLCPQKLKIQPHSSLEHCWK
5-hydroxytryptamine receptor 2A, sequence (P28223 whole entry): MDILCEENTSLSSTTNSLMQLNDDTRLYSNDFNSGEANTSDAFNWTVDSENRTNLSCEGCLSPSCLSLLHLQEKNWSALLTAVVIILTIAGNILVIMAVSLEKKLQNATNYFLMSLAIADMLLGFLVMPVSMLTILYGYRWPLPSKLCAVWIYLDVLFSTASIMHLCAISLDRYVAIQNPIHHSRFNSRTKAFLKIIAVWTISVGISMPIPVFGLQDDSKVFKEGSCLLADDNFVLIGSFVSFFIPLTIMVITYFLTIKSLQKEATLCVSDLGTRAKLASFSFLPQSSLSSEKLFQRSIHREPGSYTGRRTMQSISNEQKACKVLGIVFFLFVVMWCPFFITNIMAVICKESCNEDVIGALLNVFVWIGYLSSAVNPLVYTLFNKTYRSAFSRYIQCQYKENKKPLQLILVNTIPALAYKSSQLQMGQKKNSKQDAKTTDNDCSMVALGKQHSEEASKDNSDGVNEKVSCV
Voltage-gated inwardly rectifying potassium channel KCNH2, sequence (Q12809 whole entry): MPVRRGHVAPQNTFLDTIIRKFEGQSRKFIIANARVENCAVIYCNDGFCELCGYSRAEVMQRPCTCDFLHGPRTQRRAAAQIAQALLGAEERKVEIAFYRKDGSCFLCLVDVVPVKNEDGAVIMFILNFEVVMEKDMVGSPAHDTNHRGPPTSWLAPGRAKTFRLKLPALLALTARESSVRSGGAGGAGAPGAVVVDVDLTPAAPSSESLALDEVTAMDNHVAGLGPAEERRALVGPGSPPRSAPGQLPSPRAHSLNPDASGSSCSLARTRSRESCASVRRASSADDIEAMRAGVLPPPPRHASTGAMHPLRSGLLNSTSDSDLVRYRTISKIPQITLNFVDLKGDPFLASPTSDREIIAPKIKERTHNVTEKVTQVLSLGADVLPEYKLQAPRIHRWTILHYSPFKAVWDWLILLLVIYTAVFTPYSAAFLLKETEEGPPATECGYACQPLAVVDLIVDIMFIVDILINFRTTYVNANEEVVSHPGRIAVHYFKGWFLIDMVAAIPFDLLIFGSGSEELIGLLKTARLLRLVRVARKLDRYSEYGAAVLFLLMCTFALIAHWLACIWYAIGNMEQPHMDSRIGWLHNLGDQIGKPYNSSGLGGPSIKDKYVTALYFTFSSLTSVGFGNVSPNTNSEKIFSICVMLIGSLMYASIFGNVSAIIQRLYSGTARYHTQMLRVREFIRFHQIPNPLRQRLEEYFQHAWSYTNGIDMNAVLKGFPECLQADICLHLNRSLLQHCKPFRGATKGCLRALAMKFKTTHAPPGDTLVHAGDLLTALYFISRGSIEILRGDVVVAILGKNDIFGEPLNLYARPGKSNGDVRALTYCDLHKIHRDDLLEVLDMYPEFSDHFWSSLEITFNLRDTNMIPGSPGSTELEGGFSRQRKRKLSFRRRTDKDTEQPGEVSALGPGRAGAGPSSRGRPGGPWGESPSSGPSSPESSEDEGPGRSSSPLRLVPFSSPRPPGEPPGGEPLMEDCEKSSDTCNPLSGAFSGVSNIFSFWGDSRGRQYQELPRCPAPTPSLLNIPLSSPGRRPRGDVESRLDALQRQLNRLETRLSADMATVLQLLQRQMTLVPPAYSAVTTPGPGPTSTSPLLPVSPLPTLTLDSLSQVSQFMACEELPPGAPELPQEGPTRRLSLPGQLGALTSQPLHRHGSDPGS
Description for D(2) dopamine receptor: Binding affinity to dopamine D2 receptor (unknown origin)
Description for D(3) dopamine receptor: Binding affinity to dopamine D3 receptor (unknown origin)
Description for Histamine H1 receptor: Binding affinity to histamine H1 receptor (unknown origin)
Description for Histamine H3 receptor: Binding affinity to histamine H3 receptor (unknown origin)
Description for Rattus norvegicus: Antipsychotic activity in po dosed rat assessed as suppression in conditioned avoidance response by CAR test

Usually Ki stands for the equilibrium dissociation constant of an inhibitor or competing ligand from its target. Read a low Ki as tighter binding. On to `Fc1ccc2c(C3CCN(CCCCOc4ccc(CN5CCOCC5)cc4)CC3)noc2c1`, for which the Ki was found to be 4.5 nM in [1], 2 nM on D(2) dopamine receptor, 153 nM at Histamine H3 receptor and 95.4 nM in [2].
The corresponding values for `Fc1ccc2c(C3CCN(CCCOc4ccc(CN5CCOCC5)c(F)c4)CC3)noc2c1` are 5.2 nM, 2 nM, 187 nM and 92.2 nM.
With `Fc1ccc2c(C3CCN(CCCOc4ccc(CN5CCCC5)cc4)CC3)noc2c1`, the Ki in [1] was determined as 8.6 nM; on D(2) dopamine receptor it was 12.2 nM; at Histamine H3 receptor it was 93.7 nM; in data set [2], 81.6 nM.
For the compound `Fc1ccc2c(C3CCN(CCCOc4ccc(CN5CCOCC5)cc4F)CC3)noc2c1`, the inhibitory constant (Ki) in data set [1] was 5.6 nM; at D(2) dopamine receptor it was 1.9 nM; on Histamine H3 receptor it was 195 nM; in [2], 100 nM.
Take `Fc1ccc2c(C3CCN(CCCOc4ccc(CN5CCCC5)cc4Cl)CC3)noc2c1`: the Ki in [1] turned out to be 10.1 nM; on D(2) dopamine receptor, 14.1 nM; at Histamine H3 receptor, 125 nM; in data set [2] it was 79.2 nM.
The like results for `CC1CCN(CCc2ccc(OCCCN3CCC(c4noc5cc(F)ccc45)CC3)cc2)CC1` were, in that order, 42.9 nM, 7.4 nM, 11.9 nM and 9.6 nM.
By IC50 is commonly meant the point on the concentration scale where inhibition reaches its midpoint. In the case of `CN1CCN(Cc2ccc(OCCCCN3CCC(c4noc5cc(F)ccc45)CC3)cc2)CC1`, the Ki in [3] was determined as 426 nM; on D(3) dopamine receptor, 37.6 nM; in data set [1], 4.3 nM; at D(2) dopamine receptor it was 1.9 nM; in data set [5] it was 123 nM; on Histamine H1 receptor, 642 nM. Moreover, the values for the Ki (at Histamine H3 receptor; in [6]; in [2]) were 9.2 nM, 354 nM and 12.4 nM, respectively. Moreover, half-maximal inhibition in data set [4] (IC50) required 1060 nM.
With `Fc1ccc2c(C3CCN(CCCOc4ccc(CN5CCCCC5)cc4)CC3)noc2c1`, the Ki in data set [1] amounted to 5.1 nM; on D(2) dopamine receptor, 10.8 nM; at Histamine H3 receptor, 270 nM; in [2], 89.7 nM.
For the compound `CN1CCN(CCc2ccc(OCCCN3CCC(c4noc5cc(F)ccc45)CC3)cc2)CC1`, the Ki in data set [1] stood at 8.6 nM; on Histamine H3 receptor, 271 nM; in [2] it was 16.4 nM.
With `Cc1cc(OCCCN2CCC(c3noc4cc(F)ccc34)CC2)ccc1CN1CCCC1`, the Ki in data set [1] turned out to be 11.5 nM; at D(2) dopamine receptor it was 12.6 nM; on Histamine H3 receptor, 113 nM; in [2], 89.3 nM.
Consider `COc1cc(CN2CCOCC2)ccc1OCCCN1CCC(c2noc3cc(F)ccc23)CC1`, for which the Ki in [1] is 4.9 nM; on D(2) dopamine receptor it was 2.6 nM; on Histamine H3 receptor, 147 nM; in data set [2], 112 nM.
As for `Fc1ccc2c(C3CCN(CCCOc4ccc(CN5CCCCC5)cc4F)CC3)noc2c1`, the inhibition constant (Ki) in [1] stood at 6.5 nM; at D(2) dopamine receptor, 10.3 nM; at Histamine H3 receptor, 270 nM; in data set [2] it was 90.6 nM.
With `Cc1cc(=O)oc2c(Cl)c(OCCCCN3CCC(c4noc5cc(F)ccc45)CC3)ccc12`, the Ki in [3] was 1700 nM; on D(3) dopamine receptor it was 4.3 nM; in [1], 0.3 nM; on D(2) dopamine receptor, 2.6 nM; in data set [5] it was 228 nM; on Histamine H1 receptor it was 1130 nM. The results for the Ki in [6] and in data set [2] were 2570 nM and 3.3 nM, respectively.
For orientation: ED50 means the dose that gives a 50% effect, or the effect in half of the subjects. A low value points to an effect at a small dose. In the case of `Cc1nc2n(c(=O)c1CCN1CCC(c3noc4cc(F)ccc34)CC1)CCCC2` [RISPERIDONE], the ED50 in data set [7] worked out at 1.6 mg/kg; in the data set filed under Mus musculus [8], 0.04 mg/kg; in the data set listed under Mus musculus [9], 0.02 mg/kg; in the data set listed under Rattus norvegicus, 0.6 mg/kg.
As for `O=c1ccc(OCCCN2CCC(c3noc4cc(F)ccc34)CC2)nn1-c1c(F)cccc1F`, the Ki in [3] is 1580 nM; at D(3) dopamine receptor, 35.7 nM; in data set [1] it was 0.3 nM; on D(2) dopamine receptor, 5 nM; on Histamine H1 receptor, 2000 nM; in [6], 337 nM. Further, the Ki in [2] stood at 5.9 nM.
For the compound `Fc1ccc2c(C3CCN(CCCOc4ccc(CN5CCOCC5)cc4Cl)CC3)noc2c1`, the Ki in data set [1] amounted to 5.7 nM; on D(2) dopamine receptor it was 2.5 nM; at Histamine H3 receptor, 149 nM; in data set [2] it was 105 nM.
In the case of `CC1CCN(CCc2ccc(OCCCCN3CCC(c4noc5cc(F)ccc45)CC3)cc2)CC1`, the Ki came to 5.1 nM in [1], 2.7 nM on D(2) dopamine receptor, 15.8 nM on Histamine H3 receptor and 4.4 nM in [2].
With `O=C(CCCN1CCC(c2noc3cc(F)ccc23)CC1)c1cc2c3c(c1)CCN3C(=O)CC2`, the Ki in data set [3] came to 616 nM; on D(3) dopamine receptor, 1.7 nM; in [1], 0.7 nM; on D(2) dopamine receptor it was 2.9 nM; in data set [5], 5.6 nM; at Histamine H1 receptor, 630 nM. The Ki in data set [6] turned out to be 43.1 nM; in data set [2], 8.6 nM.
For the compound `Cc1cc(OCCCN2CCC(c3noc4cc(F)ccc34)CC2)ccc1CN1CCOCC1`, the Ki in data set [1] was 5.1 nM; on D(2) dopamine receptor, 3.1 nM; at Histamine H3 receptor it was 164 nM; in data set [2], 100 nM.
Consider `CN1CCN(Cc2ccc(OCCCN3CCC(c4noc5cc(F)ccc45)CC3)cc2)CC1`, for which the Ki stood at 573 nM in [3]; 23.2 nM on D(3) dopamine receptor; 4.7 nM in [1]; 1.7 nM at D(2) dopamine receptor; 93.3 nM in data set [5]; 719 nM at Histamine H1 receptor. Besides, the values for the Ki (at Histamine H3 receptor; in data set [6]; in data set [2]) were 8.2 nM, 332 nM and 11.9 nM, respectively. The compound further registered an IC50 in data set [4] of 1560 nM.
With `COc1cc(CN2CCCCC2)ccc1OCCCN1CCC(c2noc3cc(F)ccc23)CC1`, the Ki in [1] stood at 9 nM; on D(2) dopamine receptor, 9.5 nM; on Histamine H3 receptor, 256 nM; in data set [2], 67.7 nM.
The corresponding values for `COc1cc(CN2CCCC2)ccc1OCCCN1CCC(c2noc3cc(F)ccc23)CC1` are 10.8 nM, 6.2 nM, 151 nM and 77.9 nM.
Take `Fc1ccc2c(C3CCN(CCCOc4ccc(CN5CCOCC5)cc4)CC3)noc2c1`: the inhibition constant (Ki) in data set [1] was 4.4 nM; at D(2) dopamine receptor, 1.5 nM; on Histamine H3 receptor it was 166 nM; in [2], 85.5 nM.
In the case of `Fc1ccc2c(C3CCN(CCCOc4ccc(CN5CCOCC5)c(Cl)c4)CC3)noc2c1`, the Ki in data set [1] came to 6.3 nM; on D(2) dopamine receptor, 5.4 nM; on Histamine H3 receptor it was 163 nM; in [2] it was 152 nM.
As for `Fc1ccc2c(C3CCN(CCCOc4ccc(CN5CCCCC5)c(F)c4)CC3)noc2c1`, the Ki came to 6.2 nM in data set [1], 11.6 nM at D(2) dopamine receptor, 312 nM at Histamine H3 receptor and 92.1 nM in [2].
`Fc1ccc2c(C3CCN(CCCOc4ccc(CCN5CCCCC5)cc4)CC3)noc2c1`: the Ki in data set [3] is 753 nM; on D(3) dopamine receptor, 15.2 nM; in data set [1], 9.4 nM; on D(2) dopamine receptor, 9.7 nM; in data set [5], 149 nM; at Histamine H1 receptor it was 1020 nM. The Ki was found to be 13.4 nM at Histamine H3 receptor, 536 nM in data set [6] and 7.4 nM in [2]. The IC50 in data set [4] came to 2290 nM.
